Common to all, as to assay: growth of human tumour cells (NCI), 48 h
Assay [1] concerns SK-MEL-28.
For assay [2], the system named is HCT-116.
For assay [3], the system named is Hs-578T.
The subject of assay [4] is RPMI-8226.
For assay [5], the system named is Malme-3M.
In assay [6] the test system is HOP-92.
Assay [7] has as its system BT-549.
In assay [8] the test system is 786-0.
In assay [9] the test system is SNB-19.
The subject of assay [10] is HT-29.
Assay [11] relates to NCI-H23.
Assay [12] concerns DU-145.
The test system of assay [13] is TK-10.
Assay [14] relates to COLO 205.
The subject of assay [15] is MDA-MB-435.
For assay [16], the system named is NCI-H522.
In assay [17] the test system is CAKI-1.
Assay [18] has as its system OVCAR-3.
Assay [19] deals with T47D.

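Where inhibition never reached the appropriate level, the endpoint shown equals the highest concentration tested. Otherwise, values were interpolated linearly from a five-concentration, 48-hour dose response in 96-well plates. Here, GI50 denotes the concentration required for 50% inhibition of growth.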 Active and inactive are the calls of the source. Cut-off read from the data, not from the text of the source: active = GI50 up to about 1.1 µM and inactive = higher.

Consider `COC(=O)[C@@H]1[C@H](O)[C@H](C)[C@H](O)[C@H](C)/C=C\C=C(\C)C(=O)Nc2c(C)c(OC(C)=O)c3c(c2O)C(=O)C(C)=C2OCOC(=C23)/C(C)=C/[C@@H](O)[C@H](O)[C@@H](C)[C@H]1OC(C)=O`, for which the GI50 in [1] was 55.6 µM (inactive); in assay [2], 22.5 µM (inactive); in assay [3], > 100 µM (inactive); in assay [4], 15.5 µM (inactive); in assay [5], 34.6 µM (inactive); in [6], 80.5 µM (inactive). Besides, the GI50 was > 100 µM (inactive) in assay [7]; > 100 µM (inactive) in assay [8]; 21.5 µM (inactive) in assay [9]; 31.3 µM (inactive) in assay [10]; > 100 µM (inactive) in assay [11]; > 100 µM (inactive) in [12].
For the compound `COc1ccc(Nc2nnc(CCCCCCCCc3nnc(Nc4ccc(OC)cc4)o3)o2)cc1`, the GI50 in assay [13] is > 100 µM (inactive); in assay [1], > 100 µM (inactive); in assay [2] it was > 100 µM (inactive); in assay [14], > 100 µM (inactive); in assay [15] it was > 100 µM (inactive); in assay [16] it was 61.7 µM (inactive). Also, the GI50 in assay [5] is > 100 µM (inactive); in assay [6], > 100 µM (inactive); in [7], 80.9 µM (inactive); in assay [8], > 100 µM (inactive); in assay [9] it was > 100 µM (inactive); in assay [17] it was > 100 µM (inactive). Further, the GI50 in assay [10], in assay [18], in assay [11] and in assay [12] was > 100 µM (inactive) in each case.
On to `CC1(C)OC(=O)C(C)(C)OC1=O`, for which the GI50 in assay [13], in assay [1], in assay [2], in [14], in [15] and in assay [3] was > 100 µM (inactive) each time. In addition, the GI50 in assay [4], in [16], in [5], in [19], in assay [6] and in assay [8] was > 100 µM (inactive) in each case. Moreover, the GI50 in assay [9], in assay [17], in assay [10], in [18], in [11] and in assay [12] was > 100 µM (inactive) each time.
Consider `COc1ccc(Nc2nc3ccc(C(F)(F)F)cc3nc2C(=O)O)cc1`, for which the GI50 in [13] was 30.3 µM (inactive); in assay [1] it was 30.6 µM (inactive); in assay [2], 34.7 µM (inactive); in [14], 34.1 µM (inactive); in [15], 34.3 µM (inactive); in assay [4], 12.1 µM (inactive). Moreover, the GI50 was 36.6 µM (inactive) in assay [5]; 33.4 µM (inactive) in assay [19]; 29.6 µM (inactive) in [6]; 2.71 µM (inactive) in [7]; 44.8 µM (inactive) in assay [8]; 46.8 µM (inactive) in [17]. For the same compound, the GI50 in assay [10] is 36.9 µM (inactive); in [18], 19.9 µM (inactive); in [11], 20.6 µM (inactive); in [12], 49.1 µM (inactive).
`CN(C)c1ccc(/C=c2/c3ccccc3n3c2cc(C24CC5CC(CC(C5)C2)C4)[n+]3C)cc1`: the GI50 in assay [13] is 0.39 µM (active); in [1], 0.643 µM (active); in assay [2], 0.0828 µM (active); in [14] it was 0.0877 µM (active); in assay [15], 0.176 µM (active); in assay [4] it was 0.053 µM (active). The GI50 in assay [16] is 0.0923 µM (active); in assay [5], 0.527 µM (active); in assay [19], 0.124 µM (active); in [6], 0.366 µM (active); in assay [7], 0.245 µM (active); in assay [8], 0.126 µM (active). Further, the GI50 in [9] is 0.266 µM (active); in assay [17] it was 0.234 µM (active); in assay [10], 0.299 µM (active); in assay [18], 0.476 µM (active); in [11], 0.261 µM (active); in [12] it was 0.311 µM (active).
Take `COc1cc2c(c(O)c1OC)C(=O)C(Cc1ccc(O)cc1)CO2` (stereo not given): the GI50 in assay [13] was > 100 µM (inactive); in assay [1], 46.8 µM (inactive); in assay [2], 25.3 µM (inactive); in assay [14], 73.6 µM (inactive); in assay [15] it was 2.36 µM (inactive); in [3] it was 14.4 µM (inactive). Further, the GI50 in assay [4] is 16.6 µM (inactive); in assay [16], 3.27 µM (inactive); in assay [5], 19.9 µM (inactive); in assay [19], 29 µM (inactive); in assay [6] it was 30.3 µM (inactive); in assay [8] it was 32.9 µM (inactive). Moreover, the GI50 in assay [9] is 20.3 µM (inactive); in assay [17] it was 23 µM (inactive); in assay [10] it was 75.7 µM (inactive); in assay [18], 9.4 µM (inactive); in assay [11], 29 µM (inactive); in [12], 39.8 µM (inactive).
With `COc1cc2c3c(c1)CCCN3CCC2`, the GI50 in assay [13], in [1], in [2], in [14], in assay [15] and in assay [3] was > 10 µM (inactive) throughout. For the same compound, the GI50 in [4], in assay [16], in [5], in [19], in assay [6] and in assay [8] was > 10 µM (inactive) throughout. For the same compound, the GI50 in assay [9], in assay [17], in assay [10], in [18], in [11] and in [12] was > 10 µM (inactive) in each case.
In the case of `COc1cc(S(=O)(=O)N/N=C/c2cc(Br)c(O)c(OC)c2)c(OC)cc1NC(C)=O`, the GI50 is 77.3 µM (inactive) in assay [13]; > 100 µM (inactive) in assay [1]; 30.6 µM (inactive) in assay [2]; 23.4 µM (inactive) in assay [14]; 80.5 µM (inactive) in assay [15]; 47.2 µM (inactive) in [4]. Further, the GI50 is 41.3 µM (inactive) in [19]; 34.1 µM (inactive) in assay [6]; > 100 µM (inactive) in [7]; 27 µM (inactive) in assay [8]; > 100 µM (inactive) in assay [9]; 91 µM (inactive) in assay [17]. The GI50 is 34 µM (inactive) in assay [10], 92 µM (inactive) in assay [18], > 100 µM (inactive) in assay [11] and 85.9 µM (inactive) in [12].
Turning to `Cc1cccc2sc(NC(=O)c3cc([N+](=O)[O-])ccc3Cl)nc12`, the GI50 is 2.59 µM (inactive) in assay [13]; 5.22 µM (inactive) in assay [1]; 2.55 µM (inactive) in assay [2]; 5.96 µM (inactive) in assay [14]; 2.67 µM (inactive) in assay [15]; 3.31 µM (inactive) in [4]. Also, the GI50 in [16] is 1.78 µM (inactive); in assay [5], 5.38 µM (inactive); in assay [19] it was 4.35 µM (inactive); in [6], 2.77 µM (inactive); in assay [7], 2.44 µM (inactive); in assay [8], 1.89 µM (inactive). For the same compound, the GI50 was 7.78 µM (inactive) in assay [9]; 3.85 µM (inactive) in assay [17]; 1.85 µM (inactive) in assay [10]; 4.06 µM (inactive) in [18]; 2.79 µM (inactive) in assay [11]; 3.33 µM (inactive) in [12].

The values above are taken from ChEMBL document CHEMBL1201862, “PubChem BioAssay data set” (2004).
